Assay results: patent publication US20070128217A1 (priority 2003, published 2007)

What was measured:
[1] = test system: antibodies in sera from SARS patients (sera 1a, 1b, 2, 6, 37, 62, London, SARS-yellow, SARS-green); type: binding, human; set-up: Binding of serum 6 to linear peptides of protein X1 of SARS-CoV Urbani / Binding of serum 37 to linear peptides of protein X1 of SARS-CoV Urbani / Binding of serum 6 to looped/cyclic peptide (PEPSCAN-ELISA) / Binding of serum 37 to looped/cyclic peptide (PEPSCAN-ELISA) / Binding of serum 37 to looped/cyclic peptides of protein X1 of SARS-CoV Urbani / Binding of serum 6 to linear peptides of protein X2 / Binding of serum 37 to linear peptides of protein X2 / Binding of serum 37 to looped/cyclic peptides of protein X2 of SARS-CoV Urbani / Binding of serum 6 to linear peptides of protein M of SARS-CoV Urbani / Binding of serum 37 to linear peptides of protein M of SARS-CoV Urbani / Binding of serum 6 to looped/cyclic peptides of protein M of SARS-CoV Urbani / Binding of serum 37 to looped/cyclic peptides of protein M of SARS-CoV Urbani / Binding of serum 6 to linear peptides of protein X3 of SARS-CoV Urbani / Binding of serum 37 to linear peptides of protein X3 of SARS-CoV Urbani / Binding of serum 37 to looped/cyclic peptides of protein X3 of SARS-CoV Urbani / Binding of serum 6 to linear peptides of protein X4 of SARS-CoV Urbani / Binding of serum 37 to linear peptides of protein X4 of SARS-CoV Urbani / Binding of serum 37 to looped/cyclic peptides of protein X4 of SARS-CoV Urbani / Binding of serum 6 to linear peptides of protein X5 of SARS-CoV Urbani / Binding of serum 37 to linear peptides of protein X5 of SARS-CoV Urbani / Binding of serum 37 to looped/cyclic peptides of protein X5 of SARS-CoV Urbani / Binding of serum 6 to linear peptides of protein N of SARS-CoV Urbani / Binding of serum 37 to linear peptides of protein N of SARS-CoV Urbani / Binding of serum 6 to linear peptide (PEPSCAN-ELISA) / Binding of serum 1a to looped/cyclic peptides of protein N of SARS-CoV Urbani / Binding of serum 1b to looped/cyclic peptides of protein N of SARS-CoV Urbani / Binding of serum 2 to looped/cyclic peptides of protein N of SARS-CoV Urbani / Binding of serum 6 to looped/cyclic peptides of protein N of SARS-CoV Urbani / Binding of serum 37 to looped/cyclic peptides of protein N of SARS-CoV Urbani / Binding of serum 62 to looped/cyclic peptides of protein N of SARS-CoV Urbani / Binding of serum London to looped/cyclic peptides of protein N of SARS-CoV Urbani / Binding of serum SARS-green to looped/cyclic peptides of protein N of SARS-CoV Urbani: unit not given here
[2] = test system: control sera (pooled serum of ten healthy LUMC hospital workers; commercial negative donor pooled serum from the Dutch bloodbank); type: binding, human
[3] = test system: rabbit serum obtained by immunizing a rabbit with the SARS-CoV strain Frankfurt 1; type: binding; set-up: Binding of a rabbit serum to linear peptides / Binding of a rabbit serum to looped peptides / Rabbit serum linear peptides / Rabbit serum looped peptides / Binding of a rabbit serum to linear peptides of protein N of SARS-CoV Urbani (Rabbit serum linear peptides) / Binding of a rabbit serum to looped/cyclic peptides of protein N of SARS-CoV Urbani (Rabbit serum looped peptides): unit not given here

AFVVFLLVTLAILTA
Binding of serum 1a to linear peptides of protein E of SARS-CoV Urbani [1]: 0.8 | Binding of serum 1a to looped/cyclic peptides of protein E of SARS-CoV Urbani [1]: 0.5 | Binding of serum 1b to linear peptides of protein E of SARS-CoV Urbani [1]: 0.6 | Binding of serum 1b to looped/cyclic peptides of protein E of SARS-CoV Urbani [1]: 0.4 | Binding of serum 2 to linear peptides of protein E of SARS-CoV Urbani [1]: 0.4 | Binding of serum 2 to looped/cyclic peptides of protein E of SARS-CoV Urbani [1]: 0.4 | Binding of serum 6 to linear peptides of protein E of SARS-CoV Urbani [1]: 0.6 | Binding of serum 6 to looped/cyclic peptides of protein E of SARS-CoV Urbani [1]: 0.5 | Binding of serum 37 to linear peptides of protein E of SARS-CoV Urbani [1]: 0.7 | Binding of serum 37 to looped/cyclic peptides of protein E of SARS-CoV Urbani [1]: 0.5 | Binding of serum 62 to linear peptides of protein E of SARS-CoV Urbani [1]: 0.7 | Binding of serum 62 to looped/cyclic peptides of protein E of SARS-CoV Urbani [1]: 0.6 | Binding of serum London to linear peptides of protein E of SARS-CoV Urbani [1]: 0.6 | Binding of serum London to looped/cyclic peptides of protein E of SARS-CoV Urbani [1]: 0.4 | Binding of serum SARS-green to linear peptides of protein E of SARS-CoV Urbani [1]: 0.4 | Binding of serum SARS-green to looped/cyclic peptides of protein E of SARS-CoV Urbani [1]: 0.5 | Binding of serum SARS-yellow to linear peptides of protein E of SARS-CoV Urbani [1]: 0.2 | Binding of serum SARS-yellow to looped/cyclic peptides of protein E of SARS-CoV Urbani [1]: 0.5 | Binding of Control Serum Blood-Bank to Looped peptides [2]: 0.8 | Binding of Control serum Blood-bank to linear peptides [2]: 0.5 | Binding of Control serum LUMC to linear peptides [2]: 0.4 | Binding of Control serum LUMC to looped peptides [2]: 0.5 | Binding of a rabbit serum to linear peptides [3]: 0.7 | Binding of a rabbit serum to looped peptides [3]: 0.1

AIWNLDVIISSIVRQ
Binding of serum 1a to linear peptides of protein X3 of SARS-CoV Urbani [1]: 0.8 | Binding of serum 1a to looped/cyclic peptides of protein X3 of SARS-CoV Urbani [1]: 0.5 | Binding of serum 1b to linear peptides of protein X3 of SARS-CoV Urbani [1]: 0.4 | Binding of serum 1b to looped/cyclic peptides of protein X3 of SARS-CoV Urbani [1]: 0.5 | Binding of serum 2 to linear peptides of protein X3 of SARS-CoV Urbani [1]: 0.6 | Binding of serum 2 to looped/cyclic peptides of protein X3 of SARS-CoV Urbani [1]: 0.4 | Binding of serum 6 to linear peptides of protein X3 of SARS-CoV Urbani [1]: 0.5 | Binding of serum 6 to looped/cyclic peptides of protein X3 of SARS-CoV Urbani [1]: 0.4 | Binding of serum 37 to linear peptides of protein X3 of SARS-CoV Urbani [1]: 0.6 | Binding of serum 37 to looped/cyclic peptides of protein X3 of SARS-CoV Urbani [1]: 0.6 | Binding of serum 62 to linear peptides of protein X3 of SARS-CoV Urbani [1]: 0.6 | Binding of serum 62 to looped/cyclic peptides of protein X3 of SARS-CoV Urbani [1]: 0.5 | Binding of serum London to linear peptides of protein X3 of SARS-CoV Urbani [1]: 0.6 | Binding of serum London to looped/cyclic peptides of protein X3 of SARS-CoV Urbani [1]: 0.2 | Binding of serum SARS-green to linear peptides of protein X3 of SARS-CoV Urbani [1]: 0.3 | Binding of serum SARS-green to looped/cyclic peptides of protein X3 of SARS-CoV Urbani [1]: 0.4 | Binding of serum SARS-yellow to linear peptides of protein X3 of SARS-CoV Urbani [1]: 0.3 | Binding of serum SARS-yellow to looped/cyclic peptides of protein X3 of SARS-CoV Urbani [1]: 0.6 | Binding of Control Serum Blood-Bank to Looped peptides of the protein X3 of SARS-CoV Urbani [2]: 0.8 | Binding of Control serum Blood-bank to linear peptides of the protein X3 of SARS-CoV Urbani [2]: 0.7 | Binding of Control serum LUMC to linear peptides of the protein X3 of SARS-CoV Urbani [2]: 0.7 | Binding of Control serum LUMC to looped peptides of the protein X3 of SARS-CoV Urbani [2]: 0.7 | Rabbit serum linear peptides [3]: 0.3 | Rabbit serum looped peptides [3]: 0.4

ALRLCAYCCNIVNVS
Binding of serum 1a to linear peptides of protein E of SARS-CoV Urbani [1]: 0.9 | Binding of serum 1a to looped/cyclic peptides of protein E of SARS-CoV Urbani [1]: 0.8 | Binding of serum 1b to linear peptides of protein E of SARS-CoV Urbani [1]: 0.8 | Binding of serum 1b to looped/cyclic peptides of protein E of SARS-CoV Urbani [1]: 0.8 | Binding of serum 2 to linear peptides of protein E of SARS-CoV Urbani [1]: 0.5 | Binding of serum 2 to looped/cyclic peptides of protein E of SARS-CoV Urbani [1]: 0.7 | Binding of serum 6 to linear peptides of protein E of SARS-CoV Urbani [1]: 0.7 | Binding of serum 6 to looped/cyclic peptides of protein E of SARS-CoV Urbani [1]: 0.7 | Binding of serum 37 to linear peptides of protein E of SARS-CoV Urbani [1]: 0.8 | Binding of serum 37 to looped/cyclic peptides of protein E of SARS-CoV Urbani [1]: 0.7 | Binding of serum 62 to linear peptides of protein E of SARS-CoV Urbani [1]: 0.7 | Binding of serum 62 to looped/cyclic peptides of protein E of SARS-CoV Urbani [1]: 0.8 | Binding of serum London to linear peptides of protein E of SARS-CoV Urbani [1]: 0.5 | Binding of serum London to looped/cyclic peptides of protein E of SARS-CoV Urbani [1]: 0.6 | Binding of serum SARS-green to linear peptides of protein E of SARS-CoV Urbani [1]: 0.5 | Binding of serum SARS-green to looped/cyclic peptides of protein E of SARS-CoV Urbani [1]: 0.6 | Binding of serum SARS-yellow to linear peptides of protein E of SARS-CoV Urbani [1]: 0.2 | Binding of serum SARS-yellow to looped/cyclic peptides of protein E of SARS-CoV Urbani [1]: 0.7 | Binding of Control Serum Blood-Bank to Looped peptides [2]: 1.1 | Binding of Control serum Blood-bank to linear peptides [2]: 0.8 | Binding of Control serum LUMC to linear peptides [2]: 0.5 | Binding of Control serum LUMC to looped peptides [2]: 0.8 | Binding of a rabbit serum to linear peptides [3]: 0.7 | Binding of a rabbit serum to looped peptides [3]: 0.4

EETGTLIVNSVLLFL
Binding of serum 1a to linear peptides of protein E of SARS-CoV Urbani [1]: 0.8 | Binding of serum 1a to looped/cyclic peptides of protein E of SARS-CoV Urbani [1]: 0.4 | Binding of serum 1b to linear peptides of protein E of SARS-CoV Urbani [1]: 0.7 | Binding of serum 1b to looped/cyclic peptides of protein E of SARS-CoV Urbani [1]: 0.3 | Binding of serum 2 to linear peptides of protein E of SARS-CoV Urbani [1]: 0.4 | Binding of serum 2 to looped/cyclic peptides of protein E of SARS-CoV Urbani [1]: 0.3 | Binding of serum 6 to linear peptides of protein E of SARS-CoV Urbani [1]: 0.6 | Binding of serum 6 to looped/cyclic peptides of protein E of SARS-CoV Urbani [1]: 0.4 | Binding of serum 37 to linear peptides of protein E of SARS-CoV Urbani [1]: 0.8 | Binding of serum 37 to looped/cyclic peptides of protein E of SARS-CoV Urbani [1]: 0.4 | Binding of serum 62 to linear peptides of protein E of SARS-CoV Urbani [1]: 0.7 | Binding of serum 62 to looped/cyclic peptides of protein E of SARS-CoV Urbani [1]: 0.7 | Binding of serum London to linear peptides of protein E of SARS-CoV Urbani [1]: 0.5 | Binding of serum London to looped/cyclic peptides of protein E of SARS-CoV Urbani [1]: 0.4 | Binding of serum SARS-green to linear peptides of protein E of SARS-CoV Urbani [1]: 0.5 | Binding of serum SARS-green to looped/cyclic peptides of protein E of SARS-CoV Urbani [1]: 0.3 | Binding of serum SARS-yellow to linear peptides of protein E of SARS-CoV Urbani [1]: 0.2 | Binding of serum SARS-yellow to looped/cyclic peptides of protein E of SARS-CoV Urbani [1]: 0.5 | Binding of Control Serum Blood-Bank to Looped peptides [2]: 0.6 | Binding of Control serum Blood-bank to linear peptides [2]: 0.7 | Binding of Control serum LUMC to linear peptides [2]: 0.6 | Binding of Control serum LUMC to looped peptides [2]: 0.4 | Binding of a rabbit serum to linear peptides [3]: 0.5 | Binding of a rabbit serum to looped peptides [3]: 0.0

FLLVTLAILTALRLC
Binding of serum 1a to linear peptides of protein E of SARS-CoV Urbani [1]: 0.6 | Binding of serum 1a to looped/cyclic peptides of protein E of SARS-CoV Urbani [1]: 0.3 | Binding of serum 1b to linear peptides of protein E of SARS-CoV Urbani [1]: 0.5 | Binding of serum 1b to looped/cyclic peptides of protein E of SARS-CoV Urbani [1]: 0.0 | Binding of serum 2 to linear peptides of protein E of SARS-CoV Urbani [1]: 0.6 | Binding of serum 2 to looped/cyclic peptides of protein E of SARS-CoV Urbani [1]: 0.5 | Binding of serum 6 to linear peptides of protein E of SARS-CoV Urbani [1]: 0.3 | Binding of serum 6 to looped/cyclic peptides of protein E of SARS-CoV Urbani [1]: 1 | Binding of serum 37 to linear peptides of protein E of SARS-CoV Urbani [1]: 0.3 | Binding of serum 37 to looped/cyclic peptides of protein E of SARS-CoV Urbani [1]: 0.6 | Binding of serum 62 to linear peptides of protein E of SARS-CoV Urbani [1]: 0.3 | Binding of serum 62 to looped/cyclic peptides of protein E of SARS-CoV Urbani [1]: 0.6 | Binding of serum London to linear peptides of protein E of SARS-CoV Urbani [1]: 0.6 | Binding of serum London to looped/cyclic peptides of protein E of SARS-CoV Urbani [1]: 1.2 | Binding of serum SARS-green to linear peptides of protein E of SARS-CoV Urbani [1]: 0.5 | Binding of serum SARS-green to looped/cyclic peptides of protein E of SARS-CoV Urbani [1]: 0.3 | Binding of serum SARS-yellow to linear peptides of protein E of SARS-CoV Urbani [1]: 0.2 | Binding of serum SARS-yellow to looped/cyclic peptides of protein E of SARS-CoV Urbani [1]: 0.5 | Binding of Control Serum Blood-Bank to Looped peptides [2]: 0.5 | Binding of Control serum Blood-bank to linear peptides [2]: 0.6 | Binding of Control serum LUMC to linear peptides [2]: 0.5 | Binding of Control serum LUMC to looped peptides [2]: 0.1 | Binding of a rabbit serum to linear peptides [3]: 0.1 | Binding of a rabbit serum to looped peptides [3]: 0.0
